In patent US20220251096A1, “7,8-DIHYDRO-4H-PYRAZOLO[4,3-c]AZEPINE-6-ONE COMPOUNDS” (Eli Lilly and Company, priority 2019, published 2022):
Several values for one entry are separate records, joined by “and”; a condition that tells them apart may be missing. Equal values may be shown once.

Experiments:
BRD4 (BD1) = target: T1, BRD4 (BD1) (Homo sapiens, UniProt O60885); test: BromoKdELECT platform assay, BRD4 (BD1); assay type: binding; settings: 11 points dose-response, mean from a duplicate experiment
T1 construct: BRD4 (Bromodomain 1 (BD1) and Bromodomain 2 (BD2)); purchased DiscoverX (BromoKdELECT service)
Description: (§1) The purpose of this assay is to evaluate the in vitro target engagement and selectivity (https://www.discoverx.com/services/drug-discovery-development-services/epigenetic-profiling/bromoscan-epigenetic-profiling/bromokdelect). Assay measurement is based on the amount of bromodomain captured in test and control samples by using quantitative PCR technology that detects the DNA label associated to bromodomain. Compounds that bind the bromodomain active site prevents its binding to the immobilized ligand and will reduce the amount of bromodomain captured on the solid support. […] Thus, compound activity is monitored by measuring the amount of bromodomain captured in test versus control samples by using qPCR. Binding affinity for test compound-bromodomain interactions are calculated by measuring the amount of bromodomain captured on the solid support as a function of the test compound concentration.
(§2) Binding affinity (Kd) of the compounds of Examples 1 and 2 towards CREBBP, EP300 and BRD4 (Bromodomain 1 (BD1) and Bromodomain 2 (BD2)) are determined in an 11 points dose-response study (See Table 5). Data is represented as a mean from a duplicate experiment.

EP300 = target: T2, EP300 (Homo sapiens, UniProt Q09472); test: BromoKdELECT platform assay, EP300; assay type: binding; set-up: purchased DiscoverX (BromoKdELECT service); settings: 11 points dose-response, mean from a duplicate experiment
T2 sequence (Q09472 1049-1156 limits assumed): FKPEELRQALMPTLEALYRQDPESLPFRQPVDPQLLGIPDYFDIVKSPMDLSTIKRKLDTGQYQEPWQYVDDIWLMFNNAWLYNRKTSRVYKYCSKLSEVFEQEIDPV
Description: as §1, §2

BRD4 (BD1, BD2) = target: T3, BRD4 (BD1, BD2) (Homo sapiens, UniProt O60885); test: BromoKdELECT platform assay, BRD4 (BD1, BD2); assay type: binding; settings: 11 points dose-response, mean from a duplicate experiment
T3 construct: BRD4 (Bromodomain 1 (BD1) and Bromodomain 2 (BD2)); purchased DiscoverX (BromoKdELECT service)
Description: as §1, §2

MOLM-16 = test: Cell growth inhibition assay, MOLM-16; assay type: cell-based; settings: MOLM16, 168 h; MOLM-16, 7 days
Protocol: (§3) Tumor cell lines are plated onto 96-well, black wall poly-D-lysine plates (Corning #354640), and incubated at 37° C., 5% CO2 for 18-24 hours. Compound was added at 1:3 dilutions in DMSO and cells were incubated at 37° C., 5% CO2 for 7 days. For adherent cell lines, cells were fixed and stained with propidium iodide and scanned on Acumen (channel 3 setting). For suspension cell lines, cell growth was monitored using Cell Titer-Glo reagent.

MDA-MIB-453 = test: Cell growth inhibition assay, MDA-MIB-453; assay type: cell-based; settings: 168 h; MDA-MIB-453, 7 days
Protocol: as §3

[1] = test system: 22Rv1 prostate cancer cells; test: Cell proliferation assay in 22Rv1; assay type: cell-based; settings: 22Rv1, 7 days
Protocol: The purpose of the following cell proliferation assay is to detect whether the compound of Example 2 and combinations thereof have an effect on cell proliferation.
22Rv1 (purchased from ATCC CRL-2505) cells are seeded at a density of 1,000 cells per well in RMPI 10% FBS (20 μL volume) into a clear bottom 384-well cell culture plate. The plate is incubated at 37° C. and 5% CO2. The cells are dosed the following day with the compound of Example 2 and the compound of Example 2 in combination with the known anti-cancer therapeutics found in the table below. An Echo 555 acoustic dispenser is used to prepare serial dilutions (1:3) of the compound of Example 2, and combinations thereof, in concentrations ranging from 60 μM to 0.003 μM. The cells are then dosed by addition of 5 μL from the serial dilution plate to the cell plate, producing a final DMSO concentration of 0.2% with a final concentration dose ranging from 20 μM to 0.001 μM for the compound of Example 2 and combinations thereof.
Media containing 0.2% DMSO is used for the maximum point and 2 μM staurosporine in the growth media containing 0.2% DMSO is used for the minimum point. After dosing with the compound of Example 2 and combinations thereof, the cell plates are incubated at 37° C. and 5% CO2. Seven days after test compound addition, plates are removed from the incubator and cold EtOH (96%, 65 μL) is added to each well. After 30 minutes, the media is removed and RNase (20 μL, 50 μg/mL) (Sigma) and a 1:1000 propidium iodide dilution in PBS are added to each well. The plates are sealed and incubated for 1 hour at room temperature and preserved from light. Plates are then scanned with ACUMEN EXPLORER™ [Laser-scanning fluorescence microplate cytometer manufactured by TTP LABTECH LTD]. The number of 22Rv1 cells is evaluated through an estimated number of cells, calculated through the area parameter (ratio of total area of the total cells population), a designated range of peak intensity of FL-3 (PI), and the mean area of the single cell population defined by perimeter. Data is then processed through an NGR screening tool. Data is analyzed using a 4-parameter nonlinear logistic equation (four-parameter logistic concentration-response curve): Y=bot+[(top−bot)/1+(x/IC50)slope] where Y=% inhibition, X=concentration yielding y % inhibition, “bot”=minimum value of y attained by curve, “top”=maximum value of y attained by curve, and “slope”=steepness of curve at IC50. % Inh=[(median Max−x/median Max−median Min)]·100.

CREBBP = CREBBP (Homo sapiens, UniProt Q92793); test: BromoKdELECT platform assay, CREBBP; assay type: binding; set-up: purchased DiscoverX (BromoKdELECT service); settings: 11 points dose-response, mean from a duplicate experiment
Sequence of CREBBP (Q92793 1085-1192 limits assumed): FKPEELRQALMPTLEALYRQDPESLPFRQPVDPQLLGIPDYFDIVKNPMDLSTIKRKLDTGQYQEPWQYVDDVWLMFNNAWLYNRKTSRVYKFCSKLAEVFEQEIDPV
Description: as §1, §2

EOL-1 = test: Cell growth inhibition assay, EOL-1; assay type: cell-based; settings: Homo sapiens, EOL1, 168 h; EOL-1, 7 days
Protocol: as §3

Kd (BRD4 (BD1)): 2650 nM
Kd (EP300): 0.095 nM
Kd (BRD4 (BD1, BD2)): 7.4 µM
IC50 (MOLM-16): 129 nM
Kd (CREBBP): 0.325 nM
SMILES: CCNC(=O)c1ccc(-c2cc3cccc(-c4nn(C)c5c4CN(C)C(=O)CC5)c3cn2)cn1 [Example 2, 5-[8-(1,5-Dimethyl-6-oxo-7,8-dihydro-4H-pyrazolo[4,3-c]azepin-3-yl)-3-isoquinolyl]-N-ethyl-pyridine-2-carboxamide]
IC50 (MDA-MIB-453): 35 nM
Cell Proliferation % Inhibition ([1]; single agent at 120 nM, 0.12 µM): 9.62%
Cell Proliferation % Inhibition ([1]; single agent at 370 nM, 0.37 µM): 18.68% and 31.53%
inhibition at 0.12 µM ([1]; Homo sapiens, 22Rv1, 168 h, single agent at 120 nM): 17.4%
inhibition at 0.37 µM ([1]; Homo sapiens, 22Rv1, 168 h, single agent at 370 nM): 35.4%
inhibition at 0.74 µM ([1]; Homo sapiens, 22Rv1, 168 h, single agent at 740 nM): 12.2%
inhibition at 2.2 µM ([1]; Homo sapiens, 22Rv1, 168 h, single agent at 2.2 μM): 19.3%
inhibition at 3.3 µM ([1]; Homo sapiens, 22Rv1, 168 h, single agent at 3.3 μM): 46.3%
IC50 (EOL-1): 1 nM
